# Where two headings read alike, the source gives them in different places.
# Key:
# [1] = test system: primary mesencephalic dopaminergic cell culture derived from embryonic mice; settings: cited from earlier work
# [2] = test system: caspase-3; parameters: method as in PMID 17913302; settings: primary mesencephalic dopaminergic cell culture from embryonic mice; cited from earlier work
# [3] = test system: FAS, Gadd45a, Hspb1; Cxcl9, Irf1, Fasl, Icam1, Tnf, Vcam1; parameters: method as in PMID 17913302; settings: cited from earlier work
# [4] = test system: rats; parameters: method as in PMID 22380576; settings: compared with controls; cited from earlier work
# [5] = test system: α-synuclein; parameters: method as in PMID 20374418; settings: primary dopaminergic cell cultures; cited from earlier work
# [6] = test system: Artn, Bdnf, Egln1, Tgfb2, and Ncam1; parameters: method as in PMID 32285253; settings: cited from earlier work
# [7] = test system: male Sprague Dawley rats; type: in vivo; settings: stage 1; rats that received the lowest amounts of H and NH
# [8] = test system: male Sprague Dawley rats; assay: Battery of behavioral tests, stage 1; type: in vivo; settings: individual chemical standards added to the diet
# Method: The experiment was conducted in the animal housing facility at the Institute of Human Nutrition and Dietetics, Poznań University of Life Sciences, under conditions of natural light and with the temperature maintained during the experiment at 19–22 °C, and with a relative humidity of 55–60%. Seventeen-month-old male Sprague Dawley rats originating from a Charles River Laboratories farm were used in the experiment. The age of the rats corresponded to 51 years of human life. For the first ten days of the experiment (the adaptation period), the rats were fed ad libitum with a standard laboratory diet and water. The experiment was conducted in two stages. […] The food consumption of the individual rats was monitored daily by measuring the difference between the amount of diet supplied each day and the amount of diet remaining. Feces were collected for ten days in the seventh week of the experiment, and water content, protein, fat, dietary fiber, and ash were determined using standard analytical methods. Body mass was measured every seven days using an electronic balance. […]
# A classic labyrinth (110 × 65 cm) was used, with corridors about […], located on the table raised 50 cm from the ground. […] The time needed to complete the route between the two points of departure and arrival was measured. […]
# [9] = test system: MRC-5 cells; assay: Real-time cell proliferation analysis by xCELLigence system, MRC-5; type: cell-based, human; settings: for IC50: Homo sapiens, MRC5; for cell proliferation rate compared to the control: 24 h after administration, 1–25 µM; for cytotoxic effect on the MRC-5 cell line: low concentration range (1–25 µM)
# Method: (§1) Normal human lung fibroblasts (MRC-5) were purchased from ECACC, and human skin fibroblasts isolated from a person with Parkinson’s disease (AG20445) were purchased from the Coriell Institute. The cells were cultured in Eagle’s Minimum Essential Medium (EMEM, Corning) supplemented with antibiotics (Penicillin-Streptomycin Solution (ATCC) and 10% or 15% FBS (Sigma-Aldrich), respectively. Both cell lines were cultured at 37 °C, with the addition of 5% CO2 to the atmosphere.
# (§2) Cell proliferation analysis was performed using an xCELLigence system (Roche). The cells were seeded in sixteen-well E-plates (Roche) at a density of 7.5 × 10^3 per well. After 24 h, the cells were treated with H, NH, and both in final concentrations of 1, 5, 10, 25, 50, and 100 μM. The control cells were cultured in the supplemented medium only. The real-time proliferation of the cells was estimated based on impedance measurement, expressed as a Cell Index (CI) value. The CI was monitored at 30 min intervals from the time of plating for six days.
# [10] = test system: AG20445 (PD cells); assay: Real-time cell proliferation analysis by xCELLigence system, AG20445; type: cell-based, human; settings: 24 h after treatment, range of 1–50 µM
# Method: as §1, §2
# [11] = test system: MRC-5 cells; assay: Apoptosis/necrosis assay (Casp 3/7-FITC/7-AAD flow cytometry), MRC-5; type: cell-based, human; settings: 24 h, 5, 10, and 25 µM (Figure 2c)
# Method: as §1
# (§3) The apoptosis/necrosis assay was performed by double staining with CellEvent Caspase 3/7-FITC (Thermo Fisher Scientific) and 7-aminoactinomycin D (BD Pharmigen) fluorescent dyes. Briefly, the cells (4 × 10^5) were seeded onto six-well plates and incubated until 70–80% confluency. On the next day, the cells were treated with β-carbolines in a final concentration of 5, 10, and 25 µM. Afterward, the cells were detached with trypsin (Thermo Fisher Scientific), washed twice with Dulbecco’s Phosphate Buffered Saline (Thermo Fisher Scientific), and stained with fluorescent dyes for 30 min at 37 °C in the dark, in line with the manufacturer’s protocol. Cells were analyzed immediately with 488 nm excitation using an Accuri C6 flow cytometer (Becton Dickinson).
# [12] = test system: AG20445 cells; assay: Apoptosis/necrosis assay (Casp 3/7-FITC/7-AAD flow cytometry), AG20445; type: cell-based, human; settings: 24 h, 5, 10, and 25 µM (Figure S2b)
# Method: as §1, §3
# [13] = for share of the carboline taken in that was found in the blood: from average body mass, feed consumption and concentration in the feed; for increase of the carboline level in plasma versus control diet / Harman (ng/mL) in animal blood: stage I; for increase of the carboline level in plasma versus control diet: at the greatest addition to the diet; for Harman (ng/mL) in animal blood: fourteen weeks, n = 6
# [14] = test system: rats; parameters: method as in PMID 23107644; settings: the two higher doses (5.0 mg/kg and 7.5 mg/kg); cited from earlier work
# [15] = test system: mice; parameters: method as in PMID 16183262; settings: H 5–15 mg/kg i.p., NH 2.5–10 mg/kg i.p.; cited from earlier work
# [16] = test system: monoamine oxidase; parameters: method as in PMID 8957221; settings: cited from earlier work
# [17] = test system: KB; parameters: method as in PMID 10612592; settings: cited from earlier work
# [18] = test system: A549; parameters: method as in PMID 10612592; settings: cited from earlier work
# [19] = test system: CAKI-1; parameters: method as in PMID 10612592; settings: cited from earlier work
# [20] = test system: MCF-7; parameters: method as in PMID 10612592; settings: cited from earlier work
# [21] = test system: IA9; parameters: method as in PMID 10612592; settings: cited from earlier work
# [22] = test system: SK-MEL-2; parameters: method as in PMID 10612592; settings: cited from earlier work
# [23] = test system: U-87-MG; parameters: method as in PMID 10612592; settings: cited from earlier work
# [24] = test system: HEL; parameters: method as in PMID 10612592; settings: cited from earlier work
# [25] = test system: yeast and mammalian cells; parameters: method as in PMID 17545209; settings: cited from earlier work
# [26] = in 100g, stage I
# [27] = corresponds to ~50 µM, read-out: concentration giving 50% decrease in MRC-5 cell viability, converted
# [28] = xCELLigence, read-out: concentration giving 50% decrease in MRC-5 cell viability
smiles,measurement,setting,value
"Cn1c2ccccc2c2cc[n+](C)cc21 [2,9-dimethyl-BC]",ATP content,[1],decreased
same,free radical production,[1],increased
same,mitochondrial membrane potential,[1],decreased
same,respiratory activity,[1],decreased
same,toxic effects on dopaminergic neurons and other cell constituents,[1]; primary dopaminergic culture,highly toxic effects
"Cn1c2ccccc2c2ccncc21 [9-me-BC, 9-methyl-β-carboline]",number of dopaminergic neurons,[1]; concentration-dependent manner,capable of increasing the number of dopaminergic neurons
same,number of necrotic cells,[1]; primary mesencephalic dopaminergic cell culture from embryonic mice,reduced the number of necrotic cells
same,caspase-3 activity,[2],decrease of caspase-3 activity
same,"expression of inflammation-related genes like Cxcl9, Irf1, Fasl, Icam1, Tnf, and Vcam1",[3],reduced
same,"expression of proteins in apoptosis-relevant pathways like FAS, Gadd45a, and Hspb1",[3],downregulated
same,acquisition in a hippocampus-dependent task,[4],significantly accelerated acquisition
same,content of α-synuclein,[5],lowered
same,"gene expression of neurotrophic factors like Artn, Bdnf, Egln1, Tgfb2, and Ncam1",[6],stimulated
"Cc1nccc2c1[nH]c1ccccc12 [H, harman]",Porsolt test: mobility,[7],more mobile than the control animals
same,effect on the animals' behavior,[8],did not produce a very marked effect
same,IC50,[9]; [27],9.11 µg/mL
same,IC50,[9]; [28],~50 µM
same,cell proliferation rate compared to the control,[9]; MRC-5,significant increase in the cell proliferation rate
same,cytotoxic effect on the MRC-5 cell line,[9],neither H nor NH showed any cytotoxic effect
same,CI values (proliferation),[10],significant increase in CI values
same,induction of apoptosis,[11],do not induce apoptosis
same,induction of apoptosis,[12],do not induce apoptosis
same,share of the carboline taken in that was found in the blood,[13],about 0.15%
same,increase of the carboline level in plasma versus control diet,[13],increased by a factor of about four
same,Harman (ng/mL) in animal blood,[13]; group H1 = 10 µg H/kg of exp. diet,0.038 ng/mL
same,Harman (ng/mL) in animal blood,[13]; group H2 = 15 µg H/kg of exp. diet,0.052 ng/mL
same,Harman (ng/mL) in animal blood,[13]; group H3 = 20 µg H/kg of exp. diet,0.084 ng/mL
same,errors in working memory,[14],significantly fewer errors in working memory
same,antidepressant action on mice,[15],positive effects
same,monoamine oxidase inhibition,[16],potent monoamine oxidase inhibitor
same,ED50,[17],8.9 µg/mL
same,ED50,[18],9.3 µg/mL
same,ED50,[19],8.0 µg/mL
same,ED50,[20],19.0 µg/mL
same,ED50,[21],6.1 µg/mL
same,ED50,[22],> 20 µg/mL
same,ED50,[23],19.0 µg/mL
same,ED50,[24],9.8 µg/mL
same,protective effect against H2O2 and paraquat oxidative agents,[25],significant protective effect
"c1ccc2c(c1)[nH]c1cnccc12 [NH, norharman]",Porsolt test: mobility,[7],more mobile than the control animals
same,effect on the animals' behavior,[8],did not produce a very marked effect
same,IC50,[9]; [27],8.41 µg/mL
same,IC50,[9]; [28],~50 µM
same,cell proliferation rate compared to the control,[9]; MRC-5,significant increase in the cell proliferation rate
same,proliferation rate (ranking),"[9]; MRC-5, final concentrations of 1, 5, and 10 μM",greatest proliferation rate
same,cytotoxic effect on the MRC-5 cell line,[9],neither H nor NH showed any cytotoxic effect
same,CI values (proliferation),[10],significant increase in CI values
same,induction of apoptosis,[11],do not induce apoptosis
same,induction of apoptosis,[12],do not induce apoptosis
same,share of the carboline taken in that was found in the blood,[13],about 0.5%
same,increase of the carboline level in plasma versus control diet,[13],increased two-fold
same,IDF [g] (insoluble dietary fiber) in feces,[26]; group NH1 (8 µg NH/kg diet),"55,36 g"
same,SDF [g] (soluble dietary fiber) in feces,[26]; group NH1 (8 µg NH/kg diet),"0,04 g"
same,IDF [g] (insoluble dietary fiber) in feces,[26]; group NH2 (12 µg NH/kg diet),"54,46 g"
same,SDF [g] (soluble dietary fiber) in feces,[26]; group NH2 (12 µg NH/kg diet),"0,06 g"
same,IDF [g] (insoluble dietary fiber) in feces,[26]; group NH3 (16 µg NH/kg diet),"53,97 g"
same,SDF [g] (soluble dietary fiber) in feces,[26]; group NH3 (16 µg NH/kg diet),"0,07 g"
same,antidepressant action on mice,[15],positive effects

# From publication PMC7432475, “β-Carbolines in Experiments on Laboratory Animals” (International Journal of Molecular Sciences, 2020)
